Test results taken from PMC6271168, “Fumigant Toxicity of Oriental Sweetgum (Liquidambar orientalis) and Valerian (Valeriana wallichii) Essential Oils and Their Components, Including Their Acetylcholinesterase Inhibitory Activity, against Japanese Termites (Reticulitermes speratus)” (Molecules, 2014).
≈ marks a conversion by molar mass, not a printed value.

Target: T1, Japanese termite acetylcholinesterase (AChE)
T1 construct: gene AChE1; native; crude Triton X-100 extract (15,000 x g supernatant) of 50 whole adult termites, not purified
Experiment: modified Ellman assay, […] nm, probit analysis
Type: biochemical, Reticulitermes speratus
Conditions: acetylthiocholine iodide substrate; pH 7.8 extraction buffer; room temperature; 10 min pre-incubation; crude extract

C=C/C(C)=C\CC=C(C)C [compound 6, cis-Ocimene]
IC50: 131 mg/L (≈ 962 µM)
